Patent US8211883B2, “Topical delivery of phthalocyanines” (priority 2004, dated 2012)
Marks after values point to notes of the source that are not given here.

What was measured:
[1] = test system: Chinese hamster V79-379 lung fibroblasts; test: Clonogenic cell survival of V79 cells after photodynamic treatment; format: cell-based; conditions: for LD 90 (light dosage that kills 90% of cells): 18 hours, 675 nm red light, VII# preplated data only, XXI* not totally soluble at 0.5 mM
Procedure: Cells were irradiated at a density of approximately 2×10^6 per 25 cm^2 flask. Immediately after irradiation, the cell monolayer was treated with trypsin, and appropriate aliquots were plated in triplicate to give 100 to 200 colonies in each 10-cm Petri dish. Cell survival was determined by the ability of the cells to form colonies containing at least 50 cells. The response of cells treated with 1 μM AlPcCl and light was compared in each experiment.
Photocytotoxicity of the phthalocyanines compounds I to VI was also assessed by clonogenic assay (Table 1, FIG. 1). In all experiments, 1 μM AlPcCl was included for comparison purposes. From the survival curves (FIG. 1), the fluence reducing the cell survival to 10% (F10) was obtained. The ratio of the F10 for AlPcCl and the F10 for the test compound is recorded in Table 1. Compounds I and II appear to be nearly as efficient photosensitizers as AlPcCl, while compound IV (assayed at half the concentration) was almost twice as efficient as the standard AlPcCl. […] However, in spite of the low efficiency of compound V in inhibiting cell growth, survival measurements were made for this compound, because it was taken up into V79 cells somewhat more efficiently than compounds III and VI.
In order to take differences in cellular uptake into consideration in the assessment of the relative efficiency of these phthalocyanines as photosensitizers of V79 cells, the survival data were replotted against the product of intracellular phthalocyanine concentration and light fluence (FIG. 2). From these curves, the product of intracellular concentration and light fluence reducing survival to 10% (CF10) was obtained, and comparisons of the values for AlPcCl and the test compounds are recorded in Table 1. By this and the other criteria, compound IV appears to be the most efficient photosensitizer. However, when consideration is given to the lesser cell uptake of compound V, it appears to be about as strong a photosensitizer as compound IV.
Using the cell culture methods described above, V79 cells Chinese hamster lung fibroblasts were treated with either 0.5 or 1.0 μM of the phthalocyanines listed in Table 3. About 18 hours thereafter, the cells were irradiated with increasing doses of 675 nm broad band red light from a 500 W tungsten-halogen lamp fitted with a 600 nm high pass filter, to determine the light dosage that would kill 90% of the phthalocyanine treated cells. Where 90% of the cells were not killed, the maximum percent of cells killed were determined, (expressed as % survival) and the related light dosage recorded.

L5178Y cells = test: Induction of apoptosis (DNA ladder) in L5178Y cells after PDT; format: cell-based, Mouse; conditions: for Fluence, Minimum Demonstrated Condition to Induce Apoptosis / C × F Ld90, Minimum Demonstrated Condition to Induce Apoptosis: 0.5 μM; for C × F Ld90, Minimum Demonstrated Condition to Induce Apoptosis: product of concentration and fluence; for induction of apoptosis: 1 μM at a fluence of 30 kJ/m^2
Procedure: The cells were used while in exponential growth. Stock solutions of either 0.5 or 1 mM of PcIV, PcXII, PcX, PcXVIII were prepared in dimethylformamide unless otherwise indicated and added to the 10 mL medium at a rate of 1 μL per mL. After allowing 18 hours for uptake of the phthalocyanine into the cells, the flasks containing the cultures were placed on a glass exposure tray above a 500-W tungsten-halogen lamp. The exposure tray was fitted with a 600-nm high-pass filter. Flasks were exposed to various fluences of red light (up to 30 kJ/m^2) at a fluence rate of approximately 74 W/m^2). After irradiation, the cells were collected by centrifugation.
The aliquots were plated in sufficient numbers to produce 50-200 colonies. The dishes were kept in an incubator at 37° C. in an atmosphere of 5% CO2 and 95% air for 10-14 days to allow viable cells to form colonies. Colonies were counted by eye. […] The plating efficiencies of the treated cells are normalized to the plating efficiencies of control cells in each experiment.
Cells were treated with various concentrations of the compounds listed in the table and various light fluences. DNA gels were prepared and examined for the characteristic “ladder” pattern of DNA fragments. For each Pc, the minimum total PDT dose tested (calculated as the product of the minimum phthalocyanine concentration and the minimum fluence) which produced visible DNA fragments is recorded. […] PcXVIII was also added at 0.5 and 1.0 μM.

[2] = test system: Chinese hamster V79-379 lung fibroblasts; test: Uptake of phthalocyanines into V79 cells; conditions: for n Moles/10^6 Cells/μM (composite uptake value): V79 cells, average of all data, asterisk: listed value is for 1 μM, average would be higher
Procedure: Chinese hamster V79-379 lung fibroblasts were grown in monolayer culture in McCoy's 5A medium (Gibco Laboratories, Grand Island, N.Y.) augmented with 10% calf serum and buffered with 20 mM HEPES (pH 7.4).
Total uptake was determined by scraping the phthalocyanine-treated monolayer, collecting the cells on a glass-fiber filter, and extracting the phthalocyanine in ethanol, as previously described by Ramakrishnan, et al., 1989. (Ramakrishnan, N., M. E. Clay, M. F. Horng, A. R. Antunez, & H. H. Evans, “DNA Lesions and DNA Degradation in Mouse Lymphoma L5178Y Cells After Photodynamic Treatment Sensitized by Chloroaluminum Phthalocyanine”, Photochem. Photobiol, in press, 1989). The amount of drug was determined by absorption at 674 nm and expressed relative to the number of cells, as measured in a Coulter cell counter on an aliquot of the cell population. Controls included cells not treated with drug, medium alone, and drug-containing medium without cells.
The cells were treated with 1 μM AlPcCl (from Eastman Kodak, Rochester, N.Y.) or with phthalocyanine compositions I-VI (0.5-1.0 μM final concentration in the medium) for 18 hours by adding the appropriate volume of a 1.0 mM stock solution in dimethylformamide (DMF) to the culture medium. The growth medium was replaced with 4 mL Hank's balanced salt solution (HBSS), and the cells were irradiated. The light source was a 500 W tungsten-halogen lamp located approximately 29 inches below the surface of a glass exposure tray. The visible light administered to the cells was filtered to allow passage of only that portion of the visible spectrum above 600 nm (Lee Primary red filter No. 106, Vincent Lighting, Cleveland, Ohio). The fluence rate was approximately 0.074 kJ/m^2/s at the level of the cell monolayer.
V79 cells Chinese hamster lung fibroblasts were cultured using the cell culture methods described above. The phthalocyanines listed in table 2 were added to the cultures typically at concentrations of 1 μM, 2 μM, and/or 4 μM and incubated for 18 hours, after which aliquots of the cells were counted and other aliquots were collected on a glass fiber filter. When the filters were dry, the phthalocyanines were extracted into ethanol and the absorption determined at the peak wavelength, usually 668 nm. Values were converted to nmoles taken up by 10^6 cells, using an extinction coefficient of 2.93×10^5.

Row | SMILES | LD 90 (light dosage that kills 90% of cells) ([1]; 0.5 μM) | Uptake Into V79 Cells, 1 μM ([2]; 18 hours) [n Moles/10^6 cells] | Uptake Into V79 Cells, 4 μM ([2]; 18 hours) [n Moles/10^6 cells] | n Moles/10^6 Cells/μM (composite uptake value) [2] | other results
1 | CN(C)CCCCCCCC[Si](C)(C)O[Si]1(O)n2c3c4ccccc4c2N=C2N=C(N=c4c5ccccc5c(n41)=NC1=NC(=N3)c3ccccc31)c1ccccc12 (stereo not drawn) [Compound XXII, HOSiPcOSi(CH3)2(CH2)8N(CH3)2] | 10 kj/m^2 | – | – | – | Fluence, Minimum Demonstrated Condition to Induce Apoptosis (L5178Y cells): 10.0 kJ/m^2; C × F Ld90, Minimum Demonstrated Condition to Induce Apoptosis (L5178Y cells): 5.0 kJ/m^2
2 | C[Si](C)(CCCN1CCOCC1)O[Si]1(O)n2c3c4ccccc4c2N=C2N=C(N=c4c5ccccc5c(n41)=NC1=NC(=N3)c3ccccc31)c1ccccc12 (stereo not drawn) [Compound XIX, HOSiPcOSi(CH3)2(CH2)3NC4H8O] | – | 0.3 ± 0.1 | 2.4 ± 0.5 | – | Maximum Effect (% survival at kj/m^2) ([1]; 1 μM, at 10 kj/m^2): 81% at 10
3 | C[Si](C)(CCCO)O[Si]1(O)n2c3c4ccccc4c2N=C2N=C(N=c4c5ccccc5c(n41)=NC1=NC(=N3)c3ccccc31)c1ccccc12 (stereo not drawn) [Compound XVII, HOSiPCOSi(CH3)2(CH2)3OH] | – | – | 1.7 ± 0.2 | 0.4 n Moles/10^6 Cells/μM | Maximum Effect (% survival at kj/m^2) ([1]; 1 μM, at 10 kj/m^2): 19% at 10
4 | CCCCN(CCCC)CCC[Si](C)(C)O[Si]1(O)n2c3c4ccccc4c2N=C2N=C(N=c4c5ccccc5c(n41)=NC1=NC(=N3)c3ccccc31)c1ccccc12 (stereo not drawn) [Compound XXV, HOSiPcOSi(CH3)2(CH2)3N(CH2)3CH3)2] | – | 0.02 ± 0.02 | 1.5 ± 0.3 | <0.05* n Moles/10^6 Cells/μM | Maximum Effect (% survival at kj/m^2) ([1]; 0.5 μM, at 8 kj/m^2): 87% at 8
5 | CC(=O)OCCC[Si](C)(C)O[Si]1(O)n2c3c4ccccc4c2N=C2N=C(N=c4c5ccccc5c(n41)=NC1=NC(=N3)c3ccccc31)c1ccccc12 (stereo not drawn) [Compound XIII, HOSiPcOSi(CH3)2(CH2)3OCOCH3] | – | – | 1.7 ± 0.3 | 0.4 n Moles/10^6 Cells/μM | Maximum Effect (% survival at kj/m^2) ([1]; 1 μM, at 15 kj/m^2): 88% at 15
6 | CCCCN1CCN(CCC[Si](C)(C)O[Si]2(O)n3c4c5ccccc5c3N=C3N=C(N=c5c6ccccc6c(n52)=NC2=NC(=N4)c4ccccc42)c2ccccc23)CC1 (stereo not drawn) [Compound XXXI, HOSiPCOSi(CH3)2(CH2)3NC4H8N(CH2)3CH3] | – | – | – | 0.3 n Moles/10^6 Cells/μM | Uptake Into V79 Cells, 2 μM ([2]; 2 μM, 18 hours): 0.61 ± 0.1 n Moles/10^6 cells; Maximum Effect (% survival at kj/m^2) ([1]; 0.5 μM, at 10 kj/m^2): 30% at 10
7 | C[Si](C)(CCCN=C=S)O[Si]1(O)n2c3c4ccccc4c2N=C2N=C(N=c4c5ccccc5c(n41)=NC1=NC(=N3)c3ccccc31)c1ccccc12 (stereo not drawn) [Compound XXVI, HOSiPcOSi(CH3)2(CH2)3NCS] | – | – | – | – | Maximum Effect (% survival at kj/m^2) ([1]; 1 μM, at 30 kj/m^2): 100% at 30
8 | CN(C)CCCN(CCCN(C)C)CCC[Si](C)(C)O[Si]1(O)n2c3c4ccccc4c2N=C2N=C(N=c4c5ccccc5c(n41)=NC1=NC(=N3)c3ccccc31)c1ccccc12 (stereo not drawn) [Compound XXVII, HOSiPcOSi(CH3)2(CH2)3N[(CH2)3N(CH3)2]2] | 6.8 kj/m^2 | 1.8 | 5.0 ± 0.01 | 1.5 n Moles/10^6 Cells/μM | –
9 | CCCCCCCCCCCC[N+](C)(C)CCC[Si](C)(C)O[Si]1(O[Si](C)(C)CCC[N+](C)(C)CCCCCCCCCCCC)n2c3c4ccccc4c2N=C2N=C(N=c4c5ccccc5c(n41)=NC1=NC(=N3)c3ccccc31)c1ccccc12 [Compound XIV, SiPc[OSi(CH3)2(CH2)3N^+(CH3)2(CH2)11CH3]22I^−] | – | 0.03 ± 0.01 | 0.05 ± 0.01 | <0.05 n Moles/10^6 Cells/μM | Maximum Effect (% survival at kj/m^2) ([1]; 1 μM, at 10 kj/m^2): 93% at 10; induction of apoptosis (L5178Y cells): did not induce apoptosis
10 | C[Si](C)(CCCCN)O[Si]1(O[Si](C)(C)CCCCN)n2c3c4ccccc4c2N=C2N=C(N=c4c5ccccc5c(n41)=NC1=NC(=N3)c3ccccc31)c1ccccc12 [Compound VII, SiPc[OSi(CH3)2(CH2)4NH2]2] | 4 kj/m^2 | 0.2 ± 0.03 | 1.1 ± 0.5 | 0.2 n Moles/10^6 Cells/μM | Fluence, Minimum Demonstrated Condition to Induce Apoptosis (L5178Y cells): 3.0 kJ/m^2; C × F Ld90, Minimum Demonstrated Condition to Induce Apoptosis (L5178Y cells): 1.5 kJ/m^2
11 | C[Si](C)(CCCCNC(=S)N[C@@H]1O[C@H](CO)[C@@H](O)[C@H](O)[C@H]1O)O[Si]1(O[Si](C)(C)CCCCNC(=S)N[C@@H]2O[C@H](CO)[C@@H](O)[C@H](O)[C@H]2O)n2c3c4ccccc4c2N=C2N=C(N=c4c5ccccc5c(n41)=NC1=NC(=N3)c3ccccc31)c1ccccc12 [Compound XI, SiPc[OSi(CH3)2(CH2)4NHCSNHC6H111O5]2] | – | 0.1 | 0.3 ± 0.1 | 0.1 n Moles/10^6 Cells/μM | Maximum Effect (% survival at kj/m^2) ([1]; 1 μM, at 20 kj/m^2): 100% at 20; induction of apoptosis (L5178Y cells): did not induce apoptosis
12 | C[Si](C)(CCCN1CCSCC1)O[Si]1(O)n2c3c4ccccc4c2N=C2N=C(N=c4c5ccccc5c(n41)=NC1=NC(=N3)c3ccccc31)c1ccccc12 (stereo not drawn) [Compound XXIV, HOSiPCOSi(CH3)2(CH2)3NC4H8S] | – | 0.003 ± 0.001 | 1.3 ± 0.1 | <0.05* n Moles/10^6 Cells/μM | Maximum Effect (% survival at kj/m^2) ([1]; 0.5 μM, at 10 kj/m^2): 100% at 10
13 | CCCCCCCCCCCC[N+](C)(C)CCC[Si](C)(C)[O][Al]1[n]2c3c4ccccc4c2N=C2N=C(N=c4c5ccccc5c([n]41)=NC1=NC(=N3)c3ccccc31)c1ccccc12.[I-] [Compound XXI, AlPcOSi(CH3)2(CH2)3N^+(CH3)2)(CH2)11CH3I^−] | 15* kj/m^2 | 1.2 ± 0.2 | 5.8 ± 0.4 | 1.3 n Moles/10^6 Cells/μM | –
